Publication PMC8622706, “Synthesis, Molecular Docking, and Antimalarial Activity of Hybrid 4-Aminoquinoline-pyrano[2,3-c]pyrazole Derivatives” (Pharmaceuticals, 2021)
Read-outs that look alike come from different tables or passages of the source.

What was measured:
[1] = system: P. falciparum 3D7 (chloroquine-sensitive); test: pLDH antimalarial assay, P. falciparum 3D7 culture; format: cell-based, Plasmodium falciparum; conditions: for EC50: Plasmodium falciparum, read-out: P. falciparum 3D7 (CQ-Sensitive) EC50 ± S.D.; for Selectivity Index (SI), (CC50 MTT/EC50 pLDH), CQ-Sensitive: Vero CC50 / 3D7 EC50
Protocol: (§1) The parasites were cultivated by the Trager and Jensen methods to determine the antimalarial activity of the hybrid 4-aminoquinoline-pyrano[2,3-c]pyrazole derivatives against chloroquine-sensitive P. falciparum 3D7 and chloroquine-resistant P. falciparum K1. […] The parasites were maintained in continuous culture in fresh group O (Rhesus positive) human erythrocytes suspended in 2% hematocrit in RPMI 1640 containing […] Albumax I, glucose (3 g/L), hypoxanthine (45 μg/L), and gentamicin (50 μg/L). Plasmodium lactate dehydrogenase (pLDH) assays were performed as described by Makler et al., with slight modification. Parasites were plated in asynchronized phase at 2% hematocrit and 2% parasitemia in 100 μL of the test compounds. The compounds were dissolved in DMSO and further diluted in a culture medium. Chloroquine diphosphate and artemisinin were used as antimalarial reference drugs. Unparasitized erythrocytes without the test compounds were the blanks, while parasitized erythrocytes without test compounds were the control for the assay. Plates were placed in an incubator supplied with 5% CO2 and incubated at 37 °C for 48 h. After incubation, plates were subjected to three 30 min of freeze-thaw cycles to lyse and re-suspend the erythrocytes in the culture. Subsequently, Malstat reagent (100 μL) and a nitro blue tetrazolium salt/phenazine ethosulfate (NBT/PES) solution (25 μL) were added to each well of a new 96-well microtiter plate. The culture (25 μL) was then added to the corresponding well of the reagent plate to initiate the lactate dehydrogenase reaction. Color development of the plate was monitored calorimetrically at 650 nm after an hour of incubation in the dark.

[2] = system: P. falciparum K1 (chloroquine-resistant); test: pLDH antimalarial assay, P. falciparum K1 culture; format: cell-based, Plasmodium falciparum; conditions: for Resistance Index (RI), (EC50 Resistance/EC50 Sensitive): K1/3D7; for EC50: Plasmodium falciparum, read-out: P. falciparum K1 (CQ-Resistant) EC50 ± S.D.; for Selectivity Index (SI), (CC50 MTT/EC50 pLDH), CQ-Resistant: Vero CC50 / K1 EC50
Protocol: as §1

[3] = MTT cytotoxicity assay; format: cell-based; conditions: African green monkey, Vero cells (ATCC CCL-81), read-out: Vero Cell (Normal Cell) CC50 ± S.D.
Protocol: The cytotoxicity of the hybrid 4-aminoquinoline-pyrano[2,3-c]pyrazole derivatives was measured using the MTT assay described by Mossmann. […] The cell suspension without test compounds served as the positive control for cell growth. […] The medium was then aspirated, and formazan crystals were solubilized by adding 100 μL of DMSO per well for 10 min at 37 °C in a CO2 incubator. […] Three independent tests were conducted to determine the cytotoxicity of each test compound.

[4] = system: P. berghei; parameters: method as in PMID 30737133; conditions: P. berghei-infected mice, 5th day after infection; cited from earlier work
[5] = system: P. falciparum; parameters: method as in doi:10.1039/C6RA01349J; conditions: comparator value; read-out: antiplasmodial activity against P. falciparum; cited from earlier work
[6] = 3D7, chloroquine-sensitive strain, pLDH assay, 48 h
[7] = K1, chloroquine-resistant strain, pLDH assay, 48 h

Which EC50 [1, 6] does the source give for `Nc1ccnc2ccccc12` [4-aminoquinoline] here?
The EC50 was 9290 ± 120 nM.

What about the “Selectivity Index (SI), (CC50 MTT/EC50 pLDH), CQ-Sensitive” value (“Selectivity Index (SI) … CQ-Sensitive” for short) [1] of the same compound?
The value was 12.25.

What about the “Resistance Index (RI), (EC50 Resistance/EC50 Sensitive)” value (“Resistance Index (RI)” below) [2] of the same compound?
Its value is 15.11.

And the EC50 [2, 7]?
The EC50 was 140000 ± 27600 nM.

And the “Selectivity Index (SI), (CC50 MTT/EC50 pLDH), CQ-Resistant” value (shortened to “Selectivity Index (SI) … CQ-Resistant”) [2]?
The value was 0.81.

What about the CC50 at 48 h [3] of the same compound?
The CC50 at 48 h was 114000 ± 1630 nM.

Which EC50 [1, 6] does the source give for `C[C@@H]1CC[C@H]2[C@@H](C)C(=O)O[C@@H]3O[C@@]4(C)CC[C@@H]1[C@]32OO4` [ART, artemisinin, reference compound] here?
Its EC50 is 0.1 nM.

What about the “Selectivity Index (SI) … CQ-Sensitive” value [1] of the same compound?
The value was over 2000.

What about the “Resistance Index (RI)” value [2] of the same compound?
The value was 1.7.

What about the EC50 [2, 7] of the same compound?
Its EC50 is 0.17 nM.

And the “Selectivity Index (SI) … CQ-Resistant” value [2]?
Its value is over 2000.

With `CCN(CC)CCCC(C)Nc1ccnc2cc(Cl)ccc12` (stereo not drawn) [CQ, chloroquine, reference compound] as the compound, how does the EC50 ([1]; 3D7, 48 h) read?
Its EC50 is 2 nM.

And the EC50 ([2]; K1, 48 h)?
Its EC50 is 330 nM.

For `CCOC(=O)c1nn(CCNc2ccnc3cc(Cl)ccc23)c2c1C(c1ccccc1)C(C#N)=C(N)O2` (stereo not drawn) [Compound 4a, Ethyl 6-Amino-1-(2-((7-chloroquinolin-4-yl)amino)ethyl)-5-cyano-4-phenyl-1,4-dihydropyrano[2,3-c]pyrazole-3-carboxylate], which EC50 [1, 6] is on record?
Its EC50 is 190 ± 70 nM.

And the “Selectivity Index (SI) … CQ-Sensitive” value [1]?
The value was 539.7.

What about the “Resistance Index (RI)” value [2] of the same compound?
Its value is 1.32.

And the EC50 [2, 7]?
Its EC50 is 250 ± 30 nM.

And the “Selectivity Index (SI) … CQ-Resistant” value [2]?
Its value is 410.16.

For `CCOC(=O)c1nn(CCNc2ccnc3cc(Cl)ccc23)c2c1C(c1ccc(CC)cc1)C(C#N)=C(N)O2` (stereo not drawn) [Compound 4b, Ethyl 6-Amino-1-(2-((7-chloroquinolin-4-yl)amino)ethyl)-5-cyano-4-(4-ethylphenyl)-1,4-dihydropyrano[2,3-c]pyrazole-3-carboxylate], which EC50 [1, 6] is on record?
Its EC50 is 13 ± 0.2 nM.

And the “Selectivity Index (SI) … CQ-Sensitive” value [1]?
The value was 1353.9.

What about the “Resistance Index (RI)” value [2] of the same compound?
The value was 1.53.

And the EC50 [2, 7]?
Its EC50 is 20 ± 10 nM.

And the “Selectivity Index (SI) … CQ-Resistant” value [2]?
The value was 880.

Which results are given for `CCOC(=O)c1nn(CCNc2ccnc3cc(Cl)ccc23)c2c1C(c1ccco1)C(C#N)=C(N)O2` (stereo not drawn) [Compound 4c, Ethyl 6-Amino-1-(2-((7-chloroquinolyn-4-yl)amino)ethyl)-5-cyano-4-(furan-2-yl)-1,4-dihydropyrano[2,3-c]pyrazole-3-carboxylate]?
EC50 [1, 6]: 113 ± 2 nM; Selectivity Index (SI), (CC50 MTT/EC50 pLDH), CQ-Sensitive [1]: 747.9; Resistance Index (RI), (EC50 Resistance/EC50 Sensitive) [2]: 14.24; EC50 [2, 7]: 1610 ± 150 nM; Selectivity Index (SI), (CC50 MTT/EC50 pLDH), CQ-Resistant [2]: 52.49; Antimalarial activity class against K1 ([2]; class by EC50 threshold): active

With `CCOC(=O)c1nn(CCNc2ccnc3cc(Cl)ccc23)c2c1C(C(C)C)C(C#N)=C(N)O2` (stereo not drawn) [Compound 4d, Ethyl 6-Amino-1-(2-((7-chloroquinolyn-4-yl)amino)ethyl)-5-cyano-4-isopropyl-1,4-dihydropyrano[2,3-c]pyrazole-3-carboxylate] as the compound, how does the EC50 [1, 6] read?
The EC50 was 3390 ± 1890 nM.

And the “Selectivity Index (SI) … CQ-Sensitive” value [1]?
The value was 25.4.

And the “Antimalarial activity class against 3D7” value ([1]; class by EC50 threshold)?
The value was “active”.

And the “Resistance Index (RI)” value [2]?
Its value is 0.09.

What about the EC50 [2, 7] of the same compound?
Its EC50 is 300 ± 10 nM.

What about the “Selectivity Index (SI) … CQ-Resistant” value [2] of the same compound?
The value was 287.

What does the source list for `CCOC(=O)c1nn(CCNc2ccnc3cc(Cl)ccc23)c2c1C(c1ccc(O)cc1)C(C#N)=C(N)O2` (stereo not drawn) [Compound 4e, Ethyl 6-Amino-1-(2-((7-chloroquinolyn-4-yl)amino)ethyl)-5-cyano-4-(4-hydroxyphenyl)-1,4-dihydropyrano[2,3-c]pyrazole-3-carboxylate]?
EC50 [1, 6]: 26 ± 9 nM; Selectivity Index (SI), (CC50 MTT/EC50 pLDH), CQ-Sensitive [1]: 355.3; Resistance Index (RI), (EC50 Resistance/EC50 Sensitive) [2]: 273.84; EC50 [2, 7]: 7120 ± 3720 nM; Selectivity Index (SI), (CC50 MTT/EC50 pLDH), CQ-Resistant [2]: 1.3

With `Cc1nnc(Nc2cc(C(F)(F)F)nc3c(C(F)(F)F)cccc23)[nH]1` [VIII, N-(5-methyl-4H-1,2,4-triazol-3-yl)-2,8-bis(trifluoromethyl)quinolin-4-amine] as the compound, how does the reduction of parasitemia [4] read?
The reduction of parasitemia was 66%.

With `C=C[C@H]1C[N@@]2CC[C@H]1C[C@H]2[C@H](O)c1ccnc2ccc(OC)cc12` [quinine] as the compound, how does the IC50 [5] read?
Its IC50 is 826 nM.
